Test results: US20060069132A1, “Azolecarboxamide herbicides” (priority 2004, published 2006)

Key:
barnyardgrass = experiment: Test A pre-/postemergence herbicide test; assay type: in vivo, Echinochloa crus-galli
Summary of the method: (§1)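 Pre: seeded sandy loam, directed soil spray, compound in non-phytotoxic solvent + surfactant. Post: 1–2-leaf plants (2–10 cm), sprayed to runoff. Greenhouse ~10 d; visual injury vs untreated, 0–100 scale.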

redroot pigweed = experiment: Test A pre-/postemergence herbicide test; assay type: in vivo, Amaranthus retroflexus
Summary of the method: as §1

rice = experiment: Test B pre-/postemergence herbicide test; assay type: in vivo, Oryza sativa; details: preemergence
Summary of the method: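 Visual rating, 0 (no effect) to 100 (complete control), versus untreated controls after 13–15 d in greenhouse. Pre- and postemergence applications (postemergence plants 2–18 cm, 1–4 leaves); flooded paddy arm at 2-leaf stage. Compounds in non-phytotoxic solvent plus surfactant.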

cocklebur = experiment: Test C pre-/postemergence herbicide test; assay type: in vivo, Xanthium strumarium; details: for Cocklebur plant response rating: 500 g ai/ha
Summary of the method: (§2)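 Visual injury scores run from 0 (no effect) to 100 (complete control), assessed relative to untreated controls 12 to 14 days after treatment in the greenhouse. Chemicals were formulated in a non-phytotoxic solvent mixture with surfactant and applied to soil after planting or to emerged plants at the 1- to 4-leaf stage.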

corn = experiment: Test C pre-/postemergence herbicide test; assay type: in vivo, Zea mays
Summary of the method: as §2

johnsongrass = experiment: Test C pre-/postemergence herbicide test; assay type: in vivo, Sorghum halepense
Summary of the method: as §2

pigweed = experiment: Test C pre-/postemergence herbicide test; assay type: in vivo, Amaranthus retroflexus
Summary of the method: as §2

velvetleaf = experiment: Test C pre-/postemergence herbicide test; assay type: in vivo, Abutilon theophrasti
Summary of the method: as §2

[1] = Postemergence, 500 g ai/ha, 0 to 100 scale, 0 no effect, 100 complete control
[2] = Postemergence, 2000 g ai/ha, 0 to 100 scale, 0 no effect, 100 complete control
[3] = Preemergence, 2000 g ai/ha, visual rating, 0 to 100 scale (0 no effect, 100 complete control)
[4] = preemergence, 500 g ai/ha, visual injury, 0 to 100 scale (0 no effect, 100 complete control)
[5] = 62 g ai/ha, preemergence, scale 0 to 100
[6] = 125 g ai/ha, scale 0 (no effect) to 100 (complete control), visual, 12 to 14 days, preemergence
[7] = 250 g ai/ha, scale 0-100, preemergence
[8] = Postemergence, 250 g ai/ha, scale 0 to 100, 0 no effect, 100 complete control
[9] = Preemergence, scale 0 to 100, 0 no effect, 100 complete control
[10] = postemergence, 125 g ai/ha, scale 0 to 100
[11] = postemergence, 62 g ai/ha, scale 0 to 100
[12] = 500 g ai/ha, scale 0 to 100 (0 no effect, 100 complete control), visual, 12 to 14 days, preemergence
[13] = Postemergence, 500 g ai/ha, scale 0 to 100
[14] = 500 g ai/ha, visual rating 0-100, 0 no effect, 100 complete control
[15] = Preemergence, 500 g ai/ha, scale 0 to 100, 0 no effect, 100 complete control
[16] = Preemergence, 500 g ai/ha, visual rating, 0 to 100 scale (0 no effect, 100 complete control)
[17] = Preemergence, 2000 g ai/ha, 0 to 100 scale, 0 no effect, 100 complete control
[18] = 31 g ai/ha, preemergence, scale 0 to 100
[19] = 250 g ai/ha, scale 0 to 100 (0 no effect, 100 complete control), visual, 12 to 14 days, preemergence

For C=CCNC(=O)c1cccc(NC(=O)c2cc(C(C)(C)C)nn2C)n1 [Compound 318], the “Barnyardgrass plant response rating” value (barnyardgrass; [1]) was 65, the “Plant response rating, Barnyardgrass” value (barnyardgrass; [2]) was 90 and the “Barnyardgrass plant response rating” value (barnyardgrass; [3]) was 95. For the same compound, the “Barnyardgrass plant response rating” value (barnyardgrass; [4]) was 65, the “Pigweed plant response rating” value (redroot pigweed; [1]) was 95 and the “Plant response rating, Pigweed” value (redroot pigweed; [2]) was 100. For the same compound, the “Pigweed plant response rating” value (redroot pigweed; [3]) was 100, the “Pigweed plant response rating” value (redroot pigweed; [4]) was 75 and the “Plant response rating (0 to 100 scale), Rice” value (rice; 125 g ai/ha, 0 is no effect, 100 is complete control) was 0. For the same compound, the “Plant response rating, Rice” value (rice; 500 g ai/ha, visual rating, 0 = no effect, 100 = complete control) was 50, the “Plant response rating, Cocklebur” value (cocklebur; [5]) was 0 and the “Plant response rating, Cocklebur” value (cocklebur; [6]) was 0. The “Plant response rating, Cocklebur” value (cocklebur; [7]) was 0, the “Cocklebur plant response rating” value (cocklebur; Postemergence, scale 0 to 100) was 100 and the “Plant response rating, Cocklebur” value (cocklebur; [8]) was 10. For the same compound, the “Cocklebur plant response rating” value (cocklebur; [9]) was 0, the “Plant response rating, Cocklebur” value (cocklebur; [10]) was 5 and the “Plant response rating, Cocklebur” value (cocklebur; [11]) was 0. For the same compound, the “Plant response rating, Corn” value (corn; [5]) was 0, the “Plant response rating, Corn” value (corn; [6]) was 0 and the “Plant response rating, Corn” value (corn; [7]) was 10. The “Plant response rating, Corn” value (corn; [12]) was 40, the “Corn plant response rating” value (corn; [13]) was 25 and the “Plant response rating, Corn” value (corn; [8]) was 10. The “Plant response rating, Corn” value (corn; [10]) was 10, the “Plant response rating, Corn” value (corn; [11]) was 0 and the “Plant response rating, Johnsongrass” value (johnsongrass; [5]) was 0. For the same compound, the “Plant response rating, Johnsongrass” value (johnsongrass; [6]) was 0, the “Plant response rating, Johnsongrass” value (johnsongrass; [7]) was 60 and the “Plant response rating, Johnsongrass” value (johnsongrass; [12]) was 95. For the same compound, the “Johnsongrass plant response rating” value (johnsongrass; [13]) was 0, the “Plant response rating, Johnsongrass” value (johnsongrass; [8]) was 0 and the “Plant response rating, Johnsongrass” value (johnsongrass; [10]) was 0. The “Plant response rating, Johnsongrass” value (johnsongrass; [11]) was 0, the “Plant response rating, Pigweed” value (pigweed; [5]) was 80 and the “Plant response rating, Pigweed” value (pigweed; [6]) was 95. The “Plant response rating, Pigweed” value (pigweed; [7]) was 100, the “Plant response rating, Pigweed” value (pigweed; [12]) was 100 and the “Pigweed plant response rating” value (pigweed; [13]) was 100. The “Plant response rating, Pigweed” value (pigweed; [8]) was 100, the “Plant response rating, Pigweed” value (pigweed; [10]) was 100 and the “Plant response rating, Pigweed” value (pigweed; [11]) was 100. The “Plant response rating, Velvetleaf” value (velvetleaf; [5]) was 60, the “Plant response rating, Velvetleaf” value (velvetleaf; [7]) was 100 and the “Plant response rating, Velvetleaf” value (velvetleaf; [12]) was 100. The “Velvetleaf plant response rating” value (velvetleaf; [13]) was 60, the “Plant response rating, Velvetleaf” value (velvetleaf; [8]) was 40 and the “Plant response rating, Velvetleaf” value (velvetleaf; [10]) was 35. For the same compound, the “Plant response rating, Velvetleaf” value (velvetleaf; [11]) was 0.

With CCc1nc(C(C)(C)C)sc1C(=O)Nc1cccc(C(=O)N(CC)CC)c1 [Compound 205] the “Barnyardgrass plant response rating” value (barnyardgrass; [1]) was 45, the “Plant response rating, Barnyardgrass” value (barnyardgrass; [2]) was 65 and the “Barnyardgrass plant response rating” value (barnyardgrass; [3]) was 90. The “Barnyardgrass plant response rating” value (barnyardgrass; [4]) was 80, the “Pigweed plant response rating” value (redroot pigweed; [1]) was 50 and the “Plant response rating, Pigweed” value (redroot pigweed; [2]) was 65. For the same compound, the “Pigweed plant response rating” value (redroot pigweed; [3]) was 100, the “Pigweed plant response rating” value (redroot pigweed; [4]) was 100 and the “Rice plant response rating (0 to 100 scale)” value (rice; 125 g ai/ha, 0 = no effect, 100 = complete control) was 10. For the same compound, the “Plant response rating, Rice” value (rice; [14]) was 70, the “Plant response rating, Cocklebur” value (cocklebur; [5]) was 0 and the “Plant response rating, Cocklebur” value (cocklebur; [6]) was 0. The “Plant response rating, Cocklebur” value (cocklebur; [7]) was 0, the “Cocklebur plant response rating” value (cocklebur; [9]) was 0 and the “Plant response rating, Corn” value (corn; [5]) was 0. For the same compound, the “Plant response rating, Corn” value (corn; [6]) was 0, the “Plant response rating, Corn” value (corn; [7]) was 0 and the “Corn plant response rating” value (corn; [15]) was 40. The “Plant response rating, Johnsongrass” value (johnsongrass; [5]) was 0, the “Plant response rating, Johnsongrass” value (johnsongrass; [6]) was 10 and the “Plant response rating, Johnsongrass” value (johnsongrass; [7]) was 60. The “Johnsongrass plant response rating” value (johnsongrass; [15]) was 85, the “Plant response rating, Pigweed” value (pigweed; [5]) was 90 and the “Plant response rating, Pigweed” value (pigweed; [6]) was 95. For the same compound, the “Plant response rating, Pigweed” value (pigweed; [7]) was 95, the “Pigweed plant response rating” value (pigweed; [15]) was 100 and the “Plant response rating, Velvetleaf” value (velvetleaf; [5]) was 10. For the same compound, the “Plant response rating, Velvetleaf” value (velvetleaf; [6]) was 40, the “Plant response rating, Velvetleaf” value (velvetleaf; [7]) was 60 and the “Velvetleaf plant response rating” value (velvetleaf; [15]) was 100.

CCOC(=O)c1cc(NC(=O)c2cc(C(C)(C)C)nn2CC)ccc1OCC [Compound 95] was tested, and the “Barnyardgrass plant response rating” value (barnyardgrass; [1]) was 30, the “Plant response rating, Barnyardgrass” value (barnyardgrass; [2]) was 55 and the “Barnyardgrass plant response rating” value (barnyardgrass; [16]) was 30. The “Barnyardgrass plant response rating” value (barnyardgrass; [17]) was 50, the “Pigweed plant response rating” value (redroot pigweed; [1]) was 85 and the “Plant response rating, Pigweed” value (redroot pigweed; [2]) was 100. The “Pigweed plant response rating” value (redroot pigweed; [16]) was 100, the “Pigweed plant response rating” value (redroot pigweed; [17]) was 100 and the “Plant response rating, Rice” value (rice; [14]) was 50. The “Plant response rating, Rice” value (rice; 125 g ai/ha, 0 to 100 scale, 0 is no effect, 100 is complete control) was 30, the “Plant response rating, Cocklebur” value (cocklebur; [18]) was 0 and the “Plant response rating (0 = no effect, 100 = complete control), Cocklebur” value (cocklebur; 62 g ai/ha, preemergence) was 0. The “Plant response rating, Cocklebur” value (cocklebur; [6]) was 5, the “Plant response rating, Cocklebur” value (cocklebur; [19]) was 10 and the “Plant response rating, Corn” value (corn; [18]) was 0. The “Plant response rating (0 = no effect, 100 = complete control), Corn” value (corn; 62 g ai/ha, preemergence) was 0, the “Plant response rating, Corn” value (corn; [6]) was 10 and the “Plant response rating, Corn” value (corn; [19]) was 20. For the same compound, the “Plant response rating, Johnsongrass” value (johnsongrass; [18]) was 0, the “Plant response rating (0 = no effect, 100 = complete control), Johnsongrass” value (johnsongrass; 62 g ai/ha, preemergence) was 0 and the “Plant response rating, Johnsongrass” value (johnsongrass; [6]) was 40. The “Plant response rating, Pigweed” value (pigweed; [18]) was 100, the “Plant response rating (0 = no effect, 100 = complete control), Pigweed” value (pigweed; 62 g ai/ha, preemergence) was 100 and the “Plant response rating, Pigweed” value (pigweed; [6]) was 100. The “Plant response rating, Velvetleaf” value (velvetleaf; [18]) was 0 and the “Plant response rating, Velvetleaf” value (velvetleaf; [6]) was 60.

With CCCCOc1cccc(NC(=O)c2cc(C(C)(C)C)nn2CC)c1 [Compound 137] the “Barnyardgrass plant response rating” value (barnyardgrass; [1]) was 20, the “Plant response rating, Barnyardgrass” value (barnyardgrass; [2]) was 25 and the “Barnyardgrass plant response rating” value (barnyardgrass; [16]) was 30. For the same compound, the “Barnyardgrass plant response rating” value (barnyardgrass; [3]) was 60, the “Pigweed plant response rating” value (redroot pigweed; [1]) was 90 and the “Plant response rating, Pigweed” value (redroot pigweed; [2]) was 100. For the same compound, the “Pigweed plant response rating” value (redroot pigweed; [3]) was 90, the “Pigweed plant response rating” value (redroot pigweed; [4]) was 60 and the “Plant response rating, Rice” value (rice; [14]) was 10. For the same compound, the “Plant response rating (0 = no effect, 100 = complete control), Cocklebur” value (cocklebur; 62 g ai/ha, preemergence) was 0, the “Plant response rating, Cocklebur” value (cocklebur; [6]) was 0 and the “Plant response rating, Cocklebur” value (cocklebur; [19]) was 0. The “Cocklebur plant response rating” value (cocklebur; [9]) was 0, the “Plant response rating (0 = no effect, 100 = complete control), Corn” value (corn; 62 g ai/ha, preemergence) was 0 and the “Plant response rating, Corn” value (corn; [6]) was 5. The “Plant response rating, Corn” value (corn; [19]) was 5, the “Corn plant response rating” value (corn; [15]) was 5 and the “Plant response rating (0 = no effect, 100 = complete control), Johnsongrass” value (johnsongrass; 62 g ai/ha, preemergence) was 0. The “Plant response rating, Johnsongrass” value (johnsongrass; [6]) was 5, the “Johnsongrass plant response rating” value (johnsongrass; [15]) was 40 and the “Plant response rating (0 = no effect, 100 = complete control), Pigweed” value (pigweed; 62 g ai/ha, preemergence) was 100. For the same compound, the “Plant response rating, Pigweed” value (pigweed; [6]) was 100, the “Pigweed plant response rating” value (pigweed; [15]) was 100 and the “Plant response rating, Velvetleaf” value (velvetleaf; [6]) was 10. For the same compound, the “Velvetleaf plant response rating” value (velvetleaf; [15]) was 100.
